≈ marks a conversion by molar mass, not a printed value.
Columns and labels:
[1] = test system: histamine-induced asthma in guinea pigs; experiment: Antiasthmatic effect on histamine-induced asthma in guinea pigs (latency period); type: in vivo; conditions: X±s, n = 5; for Post-administration latency period: 1 mg/kg oral gavage, sixty minutes after administration, histamine hydrochloride spray, capped at 8 minutes
Description: The guinea pigs were placed in a polymethyl methacrylate bell jar and a histamine hydrochloride solution was sprayed ultrasonically (0.8 mg/mL) for 40 seconds. The time point at which the guinea pigs developed asthma was recorded. The time of convulsion and fall was taken as the latency period. Guinea pigs with a latency period exceeding 180 seconds were not selected. […] The guinea pigs were administered by oral gavage at a dose of 2 mL/kg·bw. Sixty minutes after the administration, the guinea pigs were placed in bell jars, and histamine hydrochloride solution was sprayed under the same conditions as in the previous selection. The latency period for the onset of asthma was recorded. […] The results were processed statistically.

[2] = test system: isolated ileal smooth muscle of guinea pigs; experiment: Effect on muscle tone of isolated ileal smooth muscle of guinea pigs (no histamine added); conditions: X±s; for Smooth muscle tone After administration: 5 minutes after adding drug; for Antispasmodic percentage: relative to tone before adding compound, n = 8, 5 min
Description: (§1) The guinea pig was knocked unconscious with a wooden stick, and the abdomen was immediately dissected to separate the ileum about 15 cm in length. The contents of the intestinal segment were flushed with Tyrode's solution and placed in Tyrode's solution at a constant temperature of 37°C for later use, and oxygen was supplied simultaneously. The experimental intestinal tract (1 cm in length) was cut and placed into 20 ml of Tyrode's solution at a constant temperature of 37°C with a continuous oxygen supply. One end of the intestine was fixed on the ventilation hook and the other end was connected to the muscle tone transducer and led to the computer interface. The muscle tone value of the ileal smooth muscle was recorded with a BL system. The experiment was carried out after the intestinal segment contraction became stable.
After the ileum contraction curve stabilized, the tone values before adding the drug were recorded, then the drug or DMSO was added, and the average tone value of the ileum contraction curve at that point was recorded 5 minutes later. The operation was repeated 8 times. The antispasmodic percentage was calculated according to the following formula. Antispasmodic percentage =; (Tone value before adding subject compound−Tone value after adding subject compound)/(Tone value before adding subject compound); × 100% [formula]

[3] = Antagonism of histamine-induced contraction of isolated ileal smooth muscle of guinea pigs; conditions: relative to tone after adding histamine; x±s, n = 8; 3 min
Description: as §1
(§2) After the ileal peristalsis curve stabilized, the tone values before adding the compound were recorded, and then 0.05 mL of histamine was added. […] The operation was repeated 8 times. The antispasmodic percentage was calculated using the following equation. Antispasmodic percentage =; (Tone value after adding histamine−Tone value after adding subject compound)/(Tone value after adding histamine) × 100% [formula]

[4] = test system: histamine; experiment: as above; conditions: x±s, n = 8; for Smooth muscle tone After administration: 3 minutes after adding 0.05 mL compound following histamine
Description: as §1, §2

[5] = Accelerated stability test; type: physicochemical; conditions: 40°C ± 2°C, relative humidity 75% ± 5%; for remaining at 730 h / remaining at 1460 h / remaining at 2190 h / remaining at 4380 h: storage 75% relative humidity, read-out: Content
[6] = Solubility of the compounds in water, methanol and isopropanol; type: physicochemical; conditions: for Solubility in Isopropanol: solvent isopropanol; for Solubility in Water: solvent water
Description: The solubility in water, methanol, and isopropanol of the compounds of the present disclosure and the comparative compounds were measured separately.

O=C1Cc2ccccc2C(=C2CCN(CCCCOP(=O)(O)O)CC2)c2ccsc21 [Compound IV-4]
Post-administration latency period [1]: 376.89 ± 51.43 s
Smooth muscle tone After administration ([2]; n = 8): 1.18 ± 0.26 g
Antispasmodic percentage ([2]; 5 min): 30.59±19.00%
Antispasmodic percentage [3]: 65.40±19.07%
Smooth muscle tone After administration [4]: 1.19 ± 0.21 g
Content ([5]; Month 0): 99.7%
Description ([5]; Month 0): White powder
Related substances ([5]; Month 0): 0.03%
Description ([5]; Month 1): White powder
Related substances ([5]; Month 1): 0.05%
Description ([5]; Month 2): White powder
Related substances ([5]; Month 2): 0.09%
Description ([5]; Month 3): White powder
Related substances ([5]; Month 3): 0.12%
Description ([5]; Month 6): White powder
Related substances ([5]; Month 6): 0.25%
remaining at 730 h ([5]; Month 1): 99.7%
remaining at 1460 h ([5]; Month 2): 99.6%
remaining at 2190 h ([5]; Month 3): 99.6%
remaining at 4380 h ([5]; Month 6): 99.4%

O=C1Cc2ccccc2C(=C2CCN(CCOCOP(=O)(O)O)CC2)c2ccsc21 [Compound III-6]
Post-administration latency period [1]: 370.03 ± 52.11 s
Pre-administration latency period ([1]; baseline before administration, histamine hydrochloride 0.8 mg/mL sprayed 40 seconds): 98.68 ± 49.22 s
Smooth muscle tone After administration ([2]; n = 8): 1.14 ± 0.30 g
Smooth muscle tone Before administration ([2]; baseline, n = 8): 1.71 ± 0.24 g
Antispasmodic percentage [2]: 33.33±19.04%
Antispasmodic percentage [3]: 64.43±17.18%
Smooth muscle tone After administration [4]: 1.22 ± 0.23 g
Smooth muscle tone After addition of histamine ([4]; after 0.05 mL histamine, before compound): 3.43 ± 0.92 g
Smooth muscle tone Before administration ([4]; baseline before histamine): 1.78 ± 0.20 g

O=C1Cc2ccccc2C(=C2CCN(CCCCCOP(=O)(O)O)CC2)c2ccsc21 [Compound IV-5]
Post-administration latency period [1]: 377.11 ± 50.43 s
Smooth muscle tone After administration ([2]; n = 8): 1.14 ± 0.30 g
Antispasmodic percentage ([2]; 5 min): 33.72±19.05%
Antispasmodic percentage [3]: 65.61±19.34%
Smooth muscle tone After administration [4]: 1.20 ± 0.22 g

O=C1Cc2ccccc2C(=C2CCN(CCOP(=O)(O)O)CC2)c2ccsc21 [Compound IV-2]
Post-administration latency period [1]: 380.27 ± 50.25 s
Smooth muscle tone After administration ([2]; n = 8): 1.19 ± 0.31 g
Antispasmodic percentage [2]: 30.40±18.50%
Antispasmodic percentage [3]: 66.95±17.07%
Smooth muscle tone After administration [4]: 1.14 ± 0.23 g
Content ([5]; Month 0): 99.7%
Description ([5]; Month 0): White powder
Related substances ([5]; Month 0): 0.03%
Description ([5]; Month 1): White powder
Related substances ([5]; Month 1): 0.04%
Description ([5]; Month 2): White powder
Related substances ([5]; Month 2): 0.04%
Description ([5]; Month 3): White powder
Related substances ([5]; Month 3): 0.06%
Description ([5]; Month 6): White powder
Related substances ([5]; Month 6): 0.09%
remaining at 730 h ([5]; Month 1): 99.7%
remaining at 1460 h ([5]; Month 2): 99.7%
remaining at 2190 h ([5]; Month 3): 99.6%
remaining at 4380 h ([5]; Month 6): 99.6%

O=C1Cc2ccccc2C(=C2CCN(CCOCOP(=O)(O)O)CC2)c2ccsc21 [Compound IV-6]
Post-administration latency period [1]: 370.56 ± 50.81 s
Smooth muscle tone After administration ([2]; n = 8): 1.17 ± 0.28 g
Antispasmodic percentage ([2]; 5 min): 31.17±19.54%
Antispasmodic percentage [3]: 66.56±19.45%
Smooth muscle tone After administration [4]: 1.15 ± 0.20 g
Content ([5]; Month 0): 99.7%
Description ([5]; Month 0): White powder
Related substances ([5]; Month 0): 0.03%
Description ([5]; Month 1): White powder
Related substances ([5]; Month 1): 0.05%
Description ([5]; Month 2): White powder
Related substances ([5]; Month 2): 0.09%
Description ([5]; Month 3): White powder
Related substances ([5]; Month 3): 0.12%
Description ([5]; Month 6): White powder
Related substances ([5]; Month 6): 0.25%
remaining at 730 h ([5]; Month 1): 99.7%
remaining at 1460 h ([5]; Month 2): 99.6%
remaining at 2190 h ([5]; Month 3): 99.6%
remaining at 4380 h ([5]; Month 6): 99.4%

O=C1Cc2ccccc2C(=C2CCN(CCCCOCOP(=O)(O)O)CC2)c2ccsc21 [Compound IV-8]
Post-administration latency period [1]: 370.23 ± 50.29 s
Smooth muscle tone After administration ([2]; n = 8): 1.14 ± 0.31 g
Antispasmodic percentage ([2]; 5 min): 32.94±19.45%
Antispasmodic percentage [3]: 65.01±18.56%
Smooth muscle tone After administration [4]: 1.20 ± 0.25 g
Content ([5]; Month 0): 99.7%
Description ([5]; Month 0): White powder
Related substances ([5]; Month 0): 0.03%
Description ([5]; Month 1): White powder
Related substances ([5]; Month 1): 0.04%
Description ([5]; Month 2): White powder
Related substances ([5]; Month 2): 0.05%
Description ([5]; Month 3): White powder
Related substances ([5]; Month 3): 0.06%
Description ([5]; Month 6): White powder
Related substances ([5]; Month 6): 0.09%
remaining at 730 h ([5]; Month 1): 99.7%
remaining at 1460 h ([5]; Month 2): 99.7%
remaining at 2190 h ([5]; Month 3): 99.6%
remaining at 4380 h ([5]; Month 6): 99.6%

O=C1Cc2ccccc2C(=C2CCN(CCCOP(=O)(O)O)CC2)c2ccsc21 [Compound IV-3]
Solubility in Isopropanol [6]: 1 mg/mL (≈ 2.31 mM)
Post-administration latency period [1]: 371.38 ± 49.10 s
Antispasmodic percentage ([2]; 5 min): 30.95±19.69%
Antispasmodic percentage [3]: 64.91±18.92%
Content ([5]; Month 0): 99.7%
Description ([5]; Month 0): White powder
Related substances ([5]; Month 0): 0.03%
Description ([5]; Month 1): White powder
Related substances ([5]; Month 1): 0.05%
Content ([5]; Month 1, 43800 min): 99.7%
Description ([5]; Month 2): White powder
Related substances ([5]; Month 2): 0.09%
Content ([5]; Month 2, 87600 min): 99.6%
Description ([5]; Month 3): White powder
Related substances ([5]; Month 3): 0.12%
Content ([5]; Month 3, 131400 min): 99.6%
Description ([5]; Month 6): White powder
Related substances ([5]; Month 6): 0.25%
Content ([5]; Month 6, 262800 min): 99.4%

O=C1Cc2ccccc2C(=C2CCN(CCCOCOP(=O)(O)O)CC2)c2ccsc21 [Compound IV-7]
Post-administration latency period [1]: 373.33 ± 52.76 s
Smooth muscle tone After administration ([2]; n = 8): 1.15 ± 0.25 g
Antispasmodic percentage ([2]; 5 min): 33.52±19.74%
Antispasmodic percentage [3]: 65.99±19.08%
Smooth muscle tone After administration [4]: 1.17 ± 0.22 g

O=C1Cc2ccccc2C(=C2CCN(CCCOP(=O)(O)O)CC2)c2ccsc21 [Compound III-3]
Solubility in Isopropanol [6]: 24 mg/mL (≈ 55.4 mM)
Solubility in Water [6]: 20 mg/mL (≈ 46.1 mM)
Post-administration latency period [1]: 368.01 ± 50.67 s
Antispasmodic percentage ([2]; 5 min): 30.23±17.82%
Antispasmodic percentage [3]: 66.66±15.49%
Content ([5]; Month 0): 99.7%
Description ([5]; Month 0): White powder
Related substances ([5]; Month 0): 0.03%
Description ([5]; Month 1): White powder
Related substances ([5]; Month 1): 0.05%
Description ([5]; Month 2): White powder
Related substances ([5]; Month 2): 0.10%
Description ([5]; Month 3): White powder
Related substances ([5]; Month 3): 0.15%
Description ([5]; Month 6): White powder
Related substances ([5]; Month 6): 0.34%
remaining at 730 h ([5]; Month 1): 99.7%
remaining at 1460 h ([5]; Month 2): 99.6%
remaining at 2190 h ([5]; Month 3): 99.5%
remaining at 4380 h ([5]; Month 6): 99.2%

O=C1Cc2ccccc2C(=C2CCN(COP(=O)(O)O)CC2)c2ccsc21 [Compound IV-1]
Post-administration latency period [1]: 368.83 ± 49.03 s
Smooth muscle tone After administration ([2]; n = 8): 1.14 ± 0.31 g
Antispasmodic percentage ([2]; 5 min): 33.72±18.32%
Antispasmodic percentage [3]: 66.28±18.26%
Smooth muscle tone After administration [4]: 1.18 ± 0.24 g
Content ([5]; Month 0): 99.7%
Description ([5]; Month 0): White powder
Related substances ([5]; Month 0): 0.03%
Description ([5]; Month 1): White powder
Related substances ([5]; Month 1): 0.05%
Description ([5]; Month 2): White powder
Related substances ([5]; Month 2): 0.09%
Description ([5]; Month 3): White powder
Related substances ([5]; Month 3): 0.12%
Description ([5]; Month 6): White powder
Related substances ([5]; Month 6): 0.24%
remaining at 730 h ([5]; Month 1): 99.7%
remaining at 1460 h ([5]; Month 2): 99.6%
remaining at 2190 h ([5]; Month 3): 99.6%
remaining at 4380 h ([5]; Month 6): 99.4%

O=C1Cc2ccccc2C(=C2CCN(CCCCCOCOP(=O)(O)O)CC2)c2ccsc21 [Compound IV-9]
Post-administration latency period [1]: 369.11 ± 49.40 s
Smooth muscle tone After administration ([2]; n = 8): 1.16 ± 0.28 g
Antispasmodic percentage ([2]; 5 min): 32.95±19.04%
Antispasmodic percentage [3]: 66.57±18.66%
Smooth muscle tone After administration [4]: 1.15 ± 0.26 g

CN1CCC(=C2c3ccccc3CC(=O)c3sccc32)CC1 [Ketotifen]
Solubility in Water [6]: Practically insoluble

From patent publication EP4559922A1, “ANTIHISTAMINE COMPOUND, PREPARATION METHOD THEREFOR AND USE THEREOF” (HC Synthetic Pharmaceutical Co., Ltd., priority 2022, dated 2024)
